In ChEMBL document CHEMBL3994622, “Design and synthesis of new RAF kinase-inhibiting antiproliferative quinoline derivatives. Part 2: Diarylurea derivatives” (Eur J Med Chem, 2017):

How the values were obtained:
Format in all cases: functional
NCI-H460 = test: Growth inhibition of human NCI-H460 cells assessed as cell growth at 0.01 uM incubated for 48 hrs by sulforhodamine B assay relative to control; conditions: NCI-H460, 48 h, read-out: Activity
SK-MEL-28 [1] = test: Growth inhibition of human SK-MEL-28 cells assessed as cell growth at 100 uM incubated for 48 hrs by sulforhodamine B assay relative to control; conditions: SK-MEL-28, 48 h, read-out: Activity
M14 = test: Growth inhibition of human M14 cells assessed as cell growth at 0.1 uM incubated for 48 hrs by sulforhodamine B assay relative to control; conditions: M14, 48 h, read-out: Activity
SK-MEL-28 [2] = test: Growth inhibition of human SK-MEL-28 cells assessed as cell growth at 0.1 uM incubated for 48 hrs by sulforhodamine B assay relative to control; conditions: SK-MEL-28, 48 h, read-out: Activity
OVCAR-5 = test: Growth inhibition of human OVCAR5 cells assessed as cell growth at 0.01 uM incubated for 48 hrs by sulforhodamine B assay relative to control; conditions: OVCAR-5, 48 h, read-out: Activity
SNB-19 = test: Growth inhibition of human SNB19 cells assessed as cell growth at 0.01 uM incubated for 48 hrs by sulforhodamine B assay relative to control; conditions: SNB-19, 48 h, read-out: Activity
NCI-H23 = test: Growth inhibition of human NCI-H23 cells assessed as cell growth at 100 uM incubated for 48 hrs by sulforhodamine B assay relative to control; conditions: NCI-H23, 48 h, read-out: Activity
SF-295 [3] = test: Growth inhibition of human SF295 cells assessed as cell growth at 100 uM incubated for 48 hrs by sulforhodamine B assay relative to control; conditions: SF-295, 48 h, read-out: Activity
HCT-15 = test: Growth inhibition of human HCT15 cells assessed as cell growth at 10 uM incubated for 48 hrs by sulforhodamine B assay relative to control; conditions: HCT-15, 48 h, read-out: Activity
COLO 205 = test: Growth inhibition of human COLO205 cells assessed as cell growth at 0.1 uM incubated for 48 hrs by sulforhodamine B assay relative to control; conditions: COLO 205, 48 h, read-out: Activity
HL-60(TB) = test: Growth inhibition of human HL-60(TB) cells assessed as cell growth at 100 uM incubated for 48 hrs by sulforhodamine B assay relative to control; conditions: HL-60, 48 h, read-out: Activity
MDA-MB-231 = test: Growth inhibition of human MDA-MB-231 cells assessed as cell growth at 10 uM incubated for 48 hrs by sulforhodamine B assay relative to control; conditions: MDA-MB-231, 48 h, read-out: Activity
NCI-H226 = test: Growth inhibition of human NCI-H226 cells assessed as cell growth at 0.1 uM incubated for 48 hrs by sulforhodamine B assay relative to control; conditions: NCI-H226, 48 h, read-out: Activity
Malme-3M = test: Growth inhibition of human MALME-3M cells assessed as cell growth at 1 uM incubated for 48 hrs by sulforhodamine B assay relative to control; conditions: read-out: Activity
NCI-H322M [4] = test: Growth inhibition of human NCI-H322M cells assessed as cell growth at 0.1 uM incubated for 48 hrs by sulforhodamine B assay relative to control; conditions: read-out: Activity
HCC 2998 = test: Growth inhibition of human HCC2998 cells assessed as cell growth at 0.01 uM incubated for 48 hrs by sulforhodamine B assay relative to control; conditions: HCC 2998, 48 h, read-out: Activity
NCI/ADR-RES = test: Growth inhibition of human NCI/ADR-RES cells assessed as cell growth at 0.03 uM incubated for 48 hrs by sulforhodamine B assay relative to control; conditions: read-out: Activity
IGROV-1 = test: Growth inhibition of human IGROV1 cells assessed as cell growth at 3 uM incubated for 48 hrs by sulforhodamine B assay relative to control; conditions: IGROV-1, 48 h, read-out: Activity
HT-29 = test: Growth inhibition of human HT-29 cells assessed as cell growth at 3 uM incubated for 48 hrs by sulforhodamine B assay relative to control; conditions: HT-29, 48 h, read-out: Activity
HCT-116 = test: Growth inhibition of human HCT116 cells assessed as cell growth at 30 uM incubated for 48 hrs by sulforhodamine B assay relative to control; conditions: HCT-116, 48 h, read-out: Activity
SK-OV-3 = test: Growth inhibition of human SKOV3 cells assessed as cell growth at 0.003 uM incubated for 48 hrs by sulforhodamine B assay relative to control; conditions: SK-OV-3, 48 h, read-out: Activity
OVCAR-8 [5] = test: Growth inhibition of human OVCAR8 cells assessed as cell growth at 0.003 uM incubated for 48 hrs by sulforhodamine B assay relative to control; conditions: OVCAR-8, 48 h, read-out: Activity
A549 = test: Growth inhibition of human A549/ATCC cells assessed as cell growth at 30 uM incubated for 48 hrs by sulforhodamine B assay relative to control; conditions: A549, 48 h, read-out: Activity
UO-31 = test: Growth inhibition of human UO31 cells assessed as cell growth at 3 uM incubated for 48 hrs by sulforhodamine B assay relative to control; conditions: UO-31, 48 h, read-out: Activity
OVCAR-3 = test: Growth inhibition of human OVCAR3 cells assessed as cell growth at 0.003 uM incubated for 48 hrs by sulforhodamine B assay relative to control; conditions: OVCAR-3, 48 h, read-out: Activity
SF-295 [6] = test: Growth inhibition of human SF295 cells assessed as cell growth at 0.003 uM incubated for 48 hrs by sulforhodamine B assay relative to control; conditions: SF-295, 48 h, read-out: Activity
TK-10 = test: Growth inhibition of human TK10 cells assessed as cell growth at 0.03 uM incubated for 48 hrs by sulforhodamine B assay relative to control; conditions: TK-10, 48 h, read-out: Activity
NCI-H322M [7] = test: Growth inhibition of human NCI-H322M cells assessed as cell growth at 0.03 uM incubated for 48 hrs by sulforhodamine B assay relative to control; conditions: read-out: Activity
UACC-257 = test: Growth inhibition of human UACC257 cells assessed as cell growth at 3 uM incubated for 48 hrs by sulforhodamine B assay relative to control; conditions: UACC-257, 48 h, read-out: Activity
KM12 = test: Growth inhibition of human KM12 cells assessed as cell growth at 3 uM incubated for 48 hrs by sulforhodamine B assay relative to control; conditions: KM12, 48 h, read-out: Activity
UACC-62 = test: Growth inhibition of human UACC62 cells assessed as cell growth at 30 uM incubated for 48 hrs by sulforhodamine B assay relative to control; conditions: UACC-62, 48 h, read-out: Activity
OVCAR-8 [8] = test: Growth inhibition of human OVCAR8 cells assessed as cell growth at 0.3 uM incubated for 48 hrs by sulforhodamine B assay relative to control; conditions: OVCAR-8, 48 h, read-out: Activity
HOP-62 = test: Growth inhibition of human HOP62 cells assessed as cell growth at 0.03 uM incubated for 48 hrs by sulforhodamine B assay relative to control; conditions: HOP-62, 48 h, read-out: Activity

Compound	growth at 0.01 µM (NCI-H460) [%]	growth at 100 µM (SK-MEL-28 [1]) [%]	growth at 0.1 µM (M14) [%]	growth at 0.1 µM (SK-MEL-28 [2]) [%]	growth at 0.01 µM (OVCAR-5) [%]	growth at 0.01 µM (SNB-19) [%]	growth at 100 µM (NCI-H23) [%]	growth at 100 µM (SF-295 [3]) [%]	growth at 10 µM (HCT-15) [%]	growth at 0.1 µM (COLO 205) [%]	growth at 100 µM (HL-60(TB)) [%]	growth at 10 µM (MDA-MB-231) [%]	growth at 0.1 µM (NCI-H226) [%]	growth at 1 µM (Malme-3M) [%]	growth at 0.1 µM (NCI-H322M [4]) [%]	growth at 0.01 µM (HCC 2998) [%]	growth at 0.03 µM (NCI/ADR-RES) [%]	growth at 3 µM (IGROV-1) [%]	growth at 3 µM (HT-29) [%]	growth at 30 µM (HCT-116) [%]	further results
COc1cc2cc(Oc3ccc(NC(=O)Nc4ccc(Cl)c(Cl)c4)cc3)c(C)nc2cc1OC	105	-77	97	91	103	94	-59	-56	19	107	-41	8	107	109	103	101					
COc1cc2cc(Oc3ccc(NC(=O)Nc4ccc(Cl)c(C(F)(F)F)c4)cc3)c(C)nc2cc1OC																	98	39	8	-83	growth at 0.003 µM (SK-OV-3): 101%; growth at 0.003 µM (OVCAR-8 [5]): 94%; growth at 30 µM (A549): -80%; growth at 3 µM (UO-31): -17%; growth at 0.003 µM (OVCAR-3): 100%; growth at 0.003 µM (SF-295 [6]): 90%; growth at 0.03 µM (TK-10): 91%; growth at 0.03 µM (NCI-H322M [7]): 90%; growth at 3 µM (UACC-257): -13%; growth at 3 µM (KM12): 7%; growth at 30 µM (UACC-62): -75%; growth at 0.3 µM (OVCAR-8 [8]): 96%; growth at 0.03 µM (HOP-62): 106%
COc1cc2cc(Oc3ccc(NC(=O)Nc4cc(C(F)(F)F)cc(C(F)(F)F)c4)cc3)c(C)nc2cc1OC	105	-73	97	102	87	95	-68	-84	-91	100	-56	-83	101	54	90	99					
Cc1nc2cc(O)c(O)cc2cc1Oc1ccc(NC(=O)Nc2ccc(Cl)c(Cl)c2)cc1																	97	95	98	-26	growth at 0.003 µM (SK-OV-3): 104%; growth at 0.003 µM (OVCAR-8 [5]): 98%; growth at 30 µM (A549): -10%; growth at 3 µM (UO-31): 100%; growth at 0.003 µM (OVCAR-3): 105%; growth at 0.003 µM (SF-295 [6]): 93%; growth at 0.03 µM (TK-10): 104%; growth at 0.03 µM (NCI-H322M [7]): 108%; growth at 3 µM (UACC-257): 87%; growth at 3 µM (KM12): 95%; growth at 30 µM (UACC-62): -78%; growth at 0.3 µM (OVCAR-8 [8]): 94%; growth at 0.03 µM (HOP-62): 105%
